The values that follow come from PMC7717565, “Structure of the Lifeact–F-actin complex” (PLoS Biology, 2020).

pKd: −log10 of the molar value. Where no end group is shown, it is not given here.

The subject of assay [1] is F-actin-rich patch in yeast cells. The class given is cell-based, Saccharomyces cerevisiae. The settings on record: Fig 3D.
Assay [2] has the same test system. The class given is cell-based, Saccharomyces cerevisiae. Conditions: Fig 3E.
The test system of assay [3] is F-actin in yeast cells, WT actin. The format is cell-based, Saccharomyces cerevisiae. The settings on record: for weighted colocalization coefficient of phalloidin with Lifeact–mCherry: native ABP140 promoter, fixed cells, ActinGreen 488, Fig 2B, mean of 15 cells from 2 independent experiments.
Assay [4] has as its system HEK 293T cells intoxicated with PTC3. In words: Intoxication competition assay with PTC3 in HEK 293T cells (cell area). The class given is cell-based, human. Conditions: 300 pM PTC3, 5 h, mCherry fusion expressed.
In assay [5] the target is F-actin (Oryctolagus cuniculus, UniProt P68135). The assay is described as follows: Cosedimentation of Lifeact–mCherry with F-actin. The class given is binding, Rabbit (skeletal muscle α-actin). Details: Bmax Value: unit not given here.
The subject of assay [6] is motor domain of human NM2C binding to F-actin. In words: Competition cosedimentation of F-actin with NM2C motor domain. Conditions: for fraction of myosin cosedimented with F-actin: Lifeact 100 uM, F-actin 0.2 μM, NM2C 0.2 μM, pH 8.
Method: The motor domain of nonmuscular myosin-2C (MYH14, isoform 2 from Homo sapiens) consisting of amino acids 1–799 was purified as described previously [32]
Then, actin was polymerized by incubation in F-buffer (120 mM KCl, 20 mM Tris pH 8, 2 mM MgCl2, 1 mM DTT, and 1 mM ATP) for 2 hours at room temperature or overnight at 4°C. For the cosedimentation experiments with myosin and tropomyosin, a 2-fold molar excess of phalloidin was added after the polymerization. Then, the actin filaments were pelleted using a TLA-55 rotor at 150,000 g for 30 minutes and resuspended in the following buffers: F-buffer was used for cosedimentations with tropomyosin or Lifeact–mCherry fusion proteins; 20 mM HEPES pH 6.5, 50 mM KCl, and 2 mM MgCl2 was used for cosedimentations with cofilin; and 120 mM KCl, 20 mM Tris pH 8, 2 mM MgCl2, and 1 mM DTT was used for cosedimentations with myosin.
(§1) For the competition assays, Lifeact peptide was added to the mixture at the specified concentrations. […] The Kd values were calculated as previously described using GraphPad Prism software (GraphPad Software, USA) [34].
The error bars correspond to standard deviations of 3 independent experiments.
The test system of assay [7] is human tropomyosin alpha-1 binding to F-actin. In words: Competition cosedimentation of F-actin with tropomyosin. Conditions: Lifeact 100 uM, F-actin 3 μM, tropomyosin 3 μM.
Method: (§2) An aliquot of freshly thawed G-actin was centrifuged at 150,000 g using a TLA-55 rotor for 30 minutes at 4°C to remove possible aggregates. Then, actin was polymerized by incubation in F-buffer (120 mM KCl, 20 mM Tris pH 8, 2 mM MgCl2, 1 mM DTT, and 1 mM ATP) for 2 hours at room temperature or overnight at 4°C. For the cosedimentation experiments with myosin and tropomyosin, a 2-fold molar excess of phalloidin was added after the polymerization. Then, the actin filaments were pelleted using a TLA-55 rotor at 150,000 g for 30 minutes and resuspended in the following buffers: F-buffer was used for cosedimentations with tropomyosin or Lifeact–mCherry fusion proteins; 20 mM HEPES pH 6.5, 50 mM KCl, and 2 mM MgCl2 was used for cosedimentations with cofilin; and 120 mM KCl, 20 mM Tris pH 8, 2 mM MgCl2, and 1 mM DTT was used for cosedimentations with myosin.
as §1
(§3) Representative gels are shown. […] The error bars correspond to standard deviations of 3 independent experiments.
The next assay deals with TccC3HVR. In words: ADP-ribosylation of actin by TccC3HVR. The format is biochemical, Photorhabdus luminescens. Conditions: for ADP-ribosylation level of actin (0 uM Lifeact = 1): Lifeact 100 uM, pH 8, 10 min 37°C.
Assay [8] relates to ExoY-MBP binding to F-actin. The assay is described as follows: Competition cosedimentation of F-actin with ExoY-MBP. Details: species or system Pseudomonas aeruginosa ExoY; rabbit actin. Conditions: for fraction of ExoY cosedimented with F-actin: Lifeact 300 uM, F-actin 1 μM, ExoY-MBP 1 μM.
Assay [9] concerns human cofilin-1 binding to F-actin. In words: Competition cosedimentation of F-actin with cofilin-1. Conditions: Lifeact 100 uM, F-actin 4 μM, cofilin-1 4 μM, pH 6.5.
Method: as §2, §1, §3
Assay [10] concerns F-actin. The settings on record: ref [5],[6]; cited from earlier work. From the text: Phalloidin and jasplakinolide are cyclic peptides derived from the death cap mushroom Amanita phalloides and marine sponge Jaspis johnstoni, respectively. They bind specifically to filamentous actin (F-actin), and when fused to a fluorescent probe, their derivatives allow visualization of the cell cytoskeleton by fluorescence microscopy. […] Recent electron cryo-microscopy (cryo-EM) studies from our group and others have uncovered h ...

Assay [11] concerns F-actin in yeast cells, actin D25Y/D222G. The class given is cell-based, Saccharomyces cerevisiae. Conditions: confocal microscopy, Fig 2C, endogenous actin replaced with D25Y variant.
Assay [12] concerns F-actin in yeast cells, actin L349M. The class given is cell-based, Saccharomyces cerevisiae. Conditions: confocal microscopy, Fig 2C, endogenous actin replaced with L349M variant.

Regarding “E17K: Lifeact E17K variant fused to mCherry (MGVADLIKKFESISKEK; also: fused to mCherry, His tag, end not given here)”, the “change of average Lifeact–mCherry to phalloidin signal ratio vs WT” value in assay [1] is “insignificant increase”. Also, the “change of average patch to background signal ratio vs WT” value in assay [2] was “insignificant increase”. In addition, in [3] (confocal microscopy, Fig 2A), the “staining of actin-rich structures compared with WT” value is “stained actin-rich structures in a similar way as WT Lifeact”. Moreover, the “weighted colocalization coefficient of phalloidin with Lifeact–mCherry” value in assay [3] is given as 0.8293. Besides, in assay [4], the “effect on PTC3/TccC3HVR toxicity (cytoskeletal collapse, shrinkage)” value is given as “significantly reduced”. Besides, the “Bmax Value” with F-actin [5] (3 μM Lifeact–mCherry, F-buffer pH 8, fit value, Std dev in next column) was found to be 0.9222. Further, in the assay with F-actin [5] (3 μM Lifeact–mCherry, F-buffer pH 8, full-precision fit value, Std dev in next column, unit as printed in Fig 3C), the pKd was 5.09.

Regarding “F10A Lifeact: Lifeact F10A mutant peptide, which only binds weakly to F-actin (MGVADLIKKAESISKEE)”, the “effect on myosin binding to F-actin” value in assay [6] (Fig 4B, 4C) is reported as “nor could F10A Lifeact compete with cofilin-1 or NM2C”. For the same substance, the “fraction of myosin cosedimented with F-actin” value in [6] (1st repeat) worked out at 0.8484; in [6] (2nd repeat) it was 0.9522; in [6] (3rd repeat), 0.8926; in assay [6] (mean of 3), 0.8977. Besides, the “fraction of tropomyosin cosedimented with F-actin” value in [7] (1st repeat) turned out to be 0.4801; in assay [7] (2nd repeat), 0.5601; in assay [7] (3rd repeat) it was 0.4901; in assay [7] (mean of 3), 0.5101. Besides, the “effect on the level of ADP-ribosylation” value in the assay with TccC3HVR (100 μM, control reaction) is listed as “did not decrease the level of ADP-ribosylation at all”. The “ADP-ribosylation level of actin (0 uM Lifeact = 1)” value in the assay with TccC3HVR (1st repeat) amounted to 1.142; in the assay with TccC3HVR (2nd repeat), 1.587; in the assay on TccC3HVR (3rd repeat), 0.8227; in the assay with TccC3HVR (mean of 3) it was 1.184. Further, the “effect on ExoY binding to F-actin” value in [8] (Fig 5A, 5B) was “did not impair formation of the ExoY-F-actin complex”. Further, the “fraction of ExoY cosedimented with F-actin” value in assay [8] (1st repeat) was found to be 0.8832; in assay [8] (2nd repeat), 0.8982; in [8] (3rd repeat), 0.9357; in assay [8] (mean of 3), 0.9057. In addition, the “fraction of cofilin cosedimented with F-actin” value in [9] (1st repeat) worked out at 0.5246; in assay [9] (2nd repeat) it was 0.4576; in [9] (3rd repeat), 0.5496; in [9] (mean of 3) it was 0.5106. The “binding to F-actin” value in the assay with F-actin [5] (in words, no value) is “only binds weakly to F-actin”.

Turning to Phalloidin, in the assay on F-actin [10], the “effect on F-actin” value is recorded as “strongly stabilize F-actin”.

For “WT Lifeact–mCherry: wild-type Lifeact fused to mCherry [reference compound]”, the “factor of decrease of the level of ADP ribosylation” value with TccC3HVR (3 μM) is recorded as 2. Further, the “actin-rich structures (patches, cables, contractile rings) stained by Lifeact–mCherry” value in assay [3] (confocal microscopy, Fig 2A) is “typical actin-rich assemblies such as patches, cables, and contractile rings”. Further, in [3], the “weighted colocalization coefficient of phalloidin with Lifeact–mCherry” value worked out at 0.9009. In [4], the “effect on PTC3/TccC3HVR toxicity (cytoskeletal collapse, shrinkage)” value is reported as “significantly reduced”. Moreover, the “actin-rich structures stained by Lifeact–mCherry” value in assay [11] and in assay [12] was “absent” in each case.

On to jasplakinolide, for which the “effect on F-actin” value in the assay on F-actin [10] was “strongly stabilize F-actin”.

Usually pKd stands for −log10 of the Kd, conventionally taken in molar units.
